Laboratory results as given in ChEMBL document CHEMBL3885861, “Open TG-GATES”.

Species: Rattus norvegicus
Assay: Open TG-GATES - Regimen: Single
Format: toxicity, organism-based, Sprague-Dawley
Design: regimen Single, gender Male, age 6 weeks
Conditions: in vivo, po, 300 mg/kg, route gavage, dose level High; for APTT / Bas / Eos / Fbg / Hb / Ht / Lym / MCH / MCHC / MCV / Mono / Neu / PT / Plat / RBC / Ret / WBC: tissue Blood; for KIDNEY_L / KIDNEY_R / KIDNEY_TOTAL: tissue Kidney; for LIVER: tissue Liver; for A/G / ALP / ALT / AST / BUN / CRE / Ca / Cl / DBIL / GLC / IP / K / LDH / Na / PL / RALB / TBIL / TC / TG / TP / gamma-GTP: tissue Plasma

`NC(=O)N/N=C/c1ccc([N+](=O)[O-])o1` [NITROFURAZONE] showed a TERMINAL_BW (3 h) of 181.2 g, an APTT (3 h) of 16.7 s and a Bas (3 h) of 0%. For the same compound, the Eos (3 h) was 0.6%, the Fbg (3 h) was 230.6 mg/dL and the Hb (3 h) was 12.3 g/dL. For the same compound, the Ht (3 h) was 38.2%, the Lym (3 h) was 70.4% and the MCH (3 h) was 21.7 pg. The MCHC (3 h) was 32.3%, the MCV (3 h) was 67 fL and the Mono (3 h) was 4.6%. The Neu (3 h) was 23.6%, the PT (3 h) was 14.9 s and the Plat (3 h) was 114.6 x10_4/uL. For the same compound, the RBC (3 h) was 569.8 x10_4/ul, the Ret (3 h) was 10.8% and the WBC (3 h) was 73.1 x10_2/uL. It also gave a KIDNEY_L (3 h) of 0.8 g, a KIDNEY_R (3 h) of 0.8 g and a KIDNEY_TOTAL (3 h) of 1.6 g. For the same compound, the LIVER (3 h) was 7.5 g, the A/G (3 h) was 0.9 and the ALP (3 h) was 1634 IU/L. The ALT (3 h) was 47 IU/L, the AST (3 h) was 81.6 IU/L and the BUN (3 h) was 11.8 mg/dL. For the same compound, the CRE (3 h) was 0.2 mg/dL, the Ca (3 h) was 11.1 mg/dL and the Cl (3 h) was 105.2 meq/L. The DBIL (3 h) was 0.002 mg/dL, the GLC (3 h) was 181.6 mg/dL and the IP (3 h) was 8.9 mg/dL. The K (3 h) was 3.9 meq/L, the LDH (3 h) was 47.8 IU/L and the Na (3 h) was 142 meq/L. For the same compound, the PL (3 h) was 135.8 mg/dL, the RALB (3 h) was 2.4 g/dL and the TBIL (3 h) was 0.056 mg/dL. For the same compound, the TC (3 h) was 78 mg/dL, the TG (3 h) was 29.4 mg/dL and the TP (3 h) was 5.2 g/dL. The gamma-GTP (3 h) was 1.6 IU/L, the TERMINAL_BW (6 h) was 181.5 g and the APTT (6 h) was 15.7 s. For the same compound, the Bas (6 h) was 0%, the Eos (6 h) was 1% and the Fbg (6 h) was 265 mg/dL. It also gave a Hb (6 h) of 12.7 g/dL, a Ht (6 h) of 39.5% and a Lym (6 h) of 71.2%. The MCH (6 h) was 21.5 pg, the MCHC (6 h) was 32.1% and the MCV (6 h) was 67 fL. For the same compound, the Mono (6 h) was 4%, the Neu (6 h) was 23.4% and the PT (6 h) was 14.6 s. It also gave a Plat (6 h) of 115.7 x10_4/uL, an RBC (6 h) of 589.4 x10_4/ul and a Ret (6 h) of 10.7%. For the same compound, the WBC (6 h) was 70.2 x10_2/uL, the KIDNEY_L (6 h) was 0.8 g and the KIDNEY_R (6 h) was 0.8 g. The KIDNEY_TOTAL (6 h) was 1.6 g, the LIVER (6 h) was 7.6 g and the A/G (6 h) was 0.9. For the same compound, the ALP (6 h) was 1281.4 IU/L, the ALT (6 h) was 44 IU/L and the AST (6 h) was 77 IU/L. It also gave a BUN (6 h) of 9.2 mg/dL, a CRE (6 h) of 0.2 mg/dL and a Ca (6 h) of 11 mg/dL. It also gave a Cl (6 h) of 105.4 meq/L, a DBIL (6 h) of 0.006 mg/dL and a GLC (6 h) of 171 mg/dL. It also gave an IP (6 h) of 9 mg/dL, a K (6 h) of 3.7 meq/L and an LDH (6 h) of 47.6 IU/L. It also gave a Na (6 h) of 142.2 meq/L, a PL (6 h) of 149 mg/dL and an RALB (6 h) of 2.5 g/dL. For the same compound, the TBIL (6 h) was 0.066 mg/dL, the TC (6 h) was 84.4 mg/dL and the TG (6 h) was 24.4 mg/dL. The TP (6 h) was 5.4 g/dL, the gamma-GTP (6 h) was 1.4 IU/L and the TERMINAL_BW (9 h) was 181 g. It also gave an APTT (9 h) of 15.4 s, a Bas (9 h) of 0% and an Eos (9 h) of 1%. For the same compound, the Fbg (9 h) was 282.4 mg/dL, the Hb (9 h) was 12.4 g/dL and the Ht (9 h) was 38.2%. For the same compound, the Lym (9 h) was 64.4%, the MCH (9 h) was 21.8 pg and the MCHC (9 h) was 32.3%. It also gave an MCV (9 h) of 67.4 fL, a Mono (9 h) of 3% and a Neu (9 h) of 30.4%. It also gave a PT (9 h) of 14.5 s, a Plat (9 h) of 120.7 x10_4/uL and an RBC (9 h) of 567.2 x10_4/ul. The Ret (9 h) was 10.7%, the WBC (9 h) was 63.1 x10_2/uL and the KIDNEY_L (9 h) was 0.8 g. The KIDNEY_R (9 h) was 0.8 g, the KIDNEY_TOTAL (9 h) was 1.7 g and the LIVER (9 h) was 7.5 g. The A/G (9 h) was 0.9, the ALP (9 h) was 1242 IU/L and the ALT (9 h) was 39.2 IU/L. The AST (9 h) was 79 IU/L, the BUN (9 h) was 10.4 mg/dL and the CRE (9 h) was 0.1 mg/dL. For the same compound, the Ca (9 h) was 10.8 mg/dL, the Cl (9 h) was 103.8 meq/L and the DBIL (9 h) was 0.006 mg/dL. For the same compound, the GLC (9 h) was 196 mg/dL, the IP (9 h) was 10.6 mg/dL and the K (9 h) was 3.6 meq/L. For the same compound, the LDH (9 h) was 69 IU/L, the Na (9 h) was 141 meq/L and the PL (9 h) was 135.2 mg/dL. The RALB (9 h) was 2.4 g/dL, the TBIL (9 h) was 0.062 mg/dL and the TC (9 h) was 78.8 mg/dL. The TG (9 h) was 23.2 mg/dL, the TP (9 h) was 5.2 g/dL and the gamma-GTP (9 h) was 1.4 IU/L. The TERMINAL_BW (24 h) was 167.8 g, the APTT (24 h) was 16.1 s and the Bas (24 h) was 0%. It also gave an Eos (24 h) of 0.5%, a Fbg (24 h) of 368.8 mg/dL and a Hb (24 h) of 14.1 g/dL. The Ht (24 h) was 42.9%, the Lym (24 h) was 69% and the MCH (24 h) was 21.6 pg. The MCHC (24 h) was 32.6%, the MCV (24 h) was 66 fL and the Mono (24 h) was 3.2%. It also gave a Neu (24 h) of 26.5%, a PT (24 h) of 15.8 s and a Plat (24 h) of 112.2 x10_4/uL. It also gave an RBC (24 h) of 651.8 x10_4/ul, a Ret (24 h) of 8.6% and a WBC (24 h) of 68.9 x10_2/uL. For the same compound, the KIDNEY_L (24 h) was 0.8 g, the KIDNEY_R (24 h) was 0.8 g and the KIDNEY_TOTAL (24 h) was 1.6 g. For the same compound, the LIVER (24 h) was 7 g, the A/G (24 h) was 0.9 and the ALP (24 h) was 1162.2 IU/L. It also gave an ALT (24 h) of 186 IU/L, an AST (24 h) of 88 IU/L and a BUN (24 h) of 15 mg/dL. The CRE (24 h) was 0.2 mg/dL, the Ca (24 h) was 10.6 mg/dL and the Cl (24 h) was 105.8 meq/L. The DBIL (24 h) was 0.0125 mg/dL, the GLC (24 h) was 174.8 mg/dL and the IP (24 h) was 9.7 mg/dL. For the same compound, the K (24 h) was 3.4 meq/L, the LDH (24 h) was 78.8 IU/L and the Na (24 h) was 142.8 meq/L. For the same compound, the PL (24 h) was 131.2 mg/dL, the RALB (24 h) was 2.4 g/dL and the TBIL (24 h) was 0.0825 mg/dL. The TC (24 h) was 83.8 mg/dL, the TG (24 h) was 39.8 mg/dL and the TP (24 h) was 5.3 g/dL. It also gave a gamma-GTP (24 h) of 0.8 IU/L.
